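Compound exposure: 48 hours, 5 concentrations, 96-well plates. Definition used: TGI = concentration required for complete inhibition of growth.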
Legend:
Experiment in all cases: NCI tumour cell line growth inhibition, 48 h
[1] = system: 786-0 renal
[2] = system: A498 renal
[3] = system: A549 NSCLC
[4] = system: ACHN renal
[5] = system: BT-549 breast
[6] = system: CAKI-1 renal
[7] = system: CCRF-CEM leukemia
[8] = system: COLO 205 colon
[9] = system: DU-145 prostate
[10] = system: EKVX NSCLC
[11] = system: HCC-2998 colon
[12] = system: HCT-116 colon
[13] = system: HL-60(TB) leukemia
[14] = system: HOP-62 NSCLC
[15] = system: HOP-92 NSCLC
[16] = system: HS 578T breast
[17] = system: HT29 colon
[18] = system: IGROV1 ovarian
[19] = system: K-562 leukemia
[20] = system: KM12 colon
[21] = system: LOX IMVI melanoma
[22] = system: M14 melanoma
[23] = system: MALME-3M melanoma
[24] = system: MCF7 breast
[25] = system: MDA-MB-231 breast
[26] = system: MDA-MB-435
[27] = system: MDA-N
[28] = system: MOLT-4 leukemia
[29] = system: NCI-H226 lung
[30] = system: NCI-H23 lung
[31] = system: NCI-H460 lung
[32] = system: NCI/ADR-RES ovarian
[33] = system: OVCAR-3 ovarian
[34] = system: OVCAR-4 ovarian
[35] = system: OVCAR-5 ovarian
[36] = system: OVCAR-8 ovarian
[37] = system: PC-3 prostate
[38] = system: RPMI-8226 leukemia
[39] = system: RXF 393 renal
[40] = system: SF-268 CNS
[41] = system: SF-295 CNS
[42] = system: SF-539 CNS
[43] = system: SK-MEL-2 melanoma
[44] = system: SK-MEL-28 melanoma
[45] = system: SK-MEL-5 melanoma
[46] = system: SK-OV-3 ovarian
[47] = system: SN12C renal
[48] = system: SNB-19 CNS
[49] = system: SNB-75 CNS
[50] = system: SR leukemia
[51] = system: SW-620 colon
[52] = system: T-47D breast
[53] = system: TK-10 renal
[54] = system: U251 CNS
[55] = system: UACC-257 melanoma
[56] = system: UACC-62 melanoma
[57] = system: UO-31 renal
[58] = system: HCT-15 colon
[59] = system: NCI-H522 lung

CN(Nc1cc(=O)[nH]c(=O)[nH]1)c1ccccc1 showed a TGI [1] of over 100 µM, a TGI [2] of over 100 µM and a TGI [3] of over 100 µM. For the same compound, the TGI [4] was over 100 µM, the TGI [5] was over 100 µM and the TGI [6] was over 100 µM. The TGI [7] was over 100 µM, the TGI [8] was over 100 µM and the TGI [9] was over 100 µM. For the same compound, the TGI [10] was over 100 µM, the TGI [11] was over 100 µM and the TGI [12] was over 100 µM. For the same compound, the TGI [13] was over 100 µM, the TGI [14] was over 100 µM and the TGI [15] was over 100 µM. The TGI [16] was over 100 µM, the TGI [17] was over 100 µM and the TGI [18] was over 100 µM. For the same compound, the TGI [19] was over 100 µM, the TGI [20] was over 100 µM and the TGI [21] was over 100 µM. For the same compound, the TGI [22] was over 100 µM, the TGI [23] was over 100 µM and the TGI [24] was over 100 µM. It also gave a TGI [25] of over 100 µM, a TGI [26] of over 100 µM and a TGI [27] of over 100 µM. It also gave a TGI [28] of over 100 µM, a TGI [29] of over 100 µM and a TGI [30] of over 100 µM. It also gave a TGI [31] of over 100 µM, a TGI [32] of over 100 µM and a TGI [33] of over 100 µM. It also gave a TGI [34] of over 100 µM, a TGI [35] of over 100 µM and a TGI [36] of over 100 µM. It also gave a TGI [37] of over 100 µM, a TGI [38] of over 100 µM and a TGI [39] of over 100 µM. The TGI [40] was over 100 µM, the TGI [41] was over 100 µM and the TGI [42] was over 100 µM. For the same compound, the TGI [43] was over 100 µM, the TGI [44] was over 100 µM and the TGI [45] was over 100 µM. It also gave a TGI [46] of over 100 µM, a TGI [47] of over 100 µM and a TGI [48] of over 100 µM. The TGI [49] was over 100 µM, the TGI [50] was over 100 µM and the TGI [51] was over 100 µM. For the same compound, the TGI [52] was over 100 µM, the TGI [53] was over 100 µM and the TGI [54] was over 100 µM. For the same compound, the TGI [55] was over 100 µM, the TGI [56] was over 100 µM and the TGI [57] was over 100 µM.
Compound CC(=O)c1csc2c1C(=O)c1scc(C(C)=O)c1C2=O has a TGI [1] of 4.12 µM, a TGI [2] of 2.93 µM and a TGI [3] of 4.19 µM. For the same compound, the TGI [4] was 3.24 µM, the TGI [5] was 3.18 µM and the TGI [6] was 4.1 µM. It also gave a TGI [7] of 1.82 µM, a TGI [8] of 3.63 µM and a TGI [9] of 3.34 µM. For the same compound, the TGI [10] was 3.36 µM, the TGI [12] was 4.85 µM and the TGI [58] was 3.2 µM. For the same compound, the TGI [13] was 0.43 µM, the TGI [14] was 3.43 µM and the TGI [15] was 3.92 µM. The TGI [16] was 6.48 µM, the TGI [17] was 4.61 µM and the TGI [18] was 3.08 µM. It also gave a TGI [19] of 4.35 µM, a TGI [20] of 3.53 µM and a TGI [21] of 2.9 µM. It also gave a TGI [22] of 3.1 µM, a TGI [23] of 2.95 µM and a TGI [24] of 3.31 µM. The TGI [25] was 1.43 µM, the TGI [26] was 0.336 µM and the TGI [27] was 0.319 µM. The TGI [28] was 1.13 µM, the TGI [29] was 4.14 µM and the TGI [30] was 2.92 µM. For the same compound, the TGI [31] was 2.35 µM, the TGI [59] was 1.75 µM and the TGI [32] was 3.9 µM. For the same compound, the TGI [33] was 0.646 µM, the TGI [34] was 1.65 µM and the TGI [35] was 3.45 µM. It also gave a TGI [36] of 3.09 µM, a TGI [37] of 7.49 µM and a TGI [38] of 3.14 µM. For the same compound, the TGI [39] was 3.9 µM, the TGI [40] was 3.44 µM and the TGI [41] was 3.09 µM. It also gave a TGI [42] of 3.28 µM, a TGI [43] of 3.73 µM and a TGI [44] of 3.64 µM. It also gave a TGI [45] of 2.77 µM, a TGI [46] of 4.64 µM and a TGI [47] of 3.28 µM. It also gave a TGI [48] of 3.32 µM, a TGI [49] of 4.54 µM and a TGI [51] of 3.73 µM. It also gave a TGI [52] of 1.2 µM, a TGI [53] of 5.82 µM and a TGI [54] of 2.9 µM. It also gave a TGI [55] of 2.41 µM, a TGI [56] of 3.56 µM and a TGI [57] of 3.61 µM.
CC(=O)Oc1ccccc1-c1cc2ccccc2oc1=O showed a TGI [1] of over 100 µM, a TGI [2] of over 100 µM and a TGI [3] of over 100 µM. For the same compound, the TGI [4] was over 100 µM, the TGI [5] was over 100 µM and the TGI [7] was over 100 µM. The TGI [8] was over 100 µM, the TGI [9] was over 100 µM and the TGI [10] was over 100 µM. For the same compound, the TGI [11] was over 100 µM, the TGI [12] was over 100 µM and the TGI [58] was over 100 µM. It also gave a TGI [13] of over 100 µM, a TGI [14] of over 100 µM and a TGI [16] of over 100 µM. It also gave a TGI [17] of over 100 µM, a TGI [19] of over 100 µM and a TGI [20] of over 100 µM. The TGI [21] was over 100 µM, the TGI [22] was over 100 µM and the TGI [23] was over 100 µM. It also gave a TGI [24] of over 100 µM, a TGI [25] of over 100 µM and a TGI [26] of over 100 µM. The TGI [27] was over 100 µM, the TGI [28] was over 100 µM and the TGI [29] was over 100 µM. The TGI [30] was over 100 µM, the TGI [31] was over 100 µM and the TGI [59] was over 100 µM. For the same compound, the TGI [32] was over 100 µM, the TGI [33] was over 100 µM and the TGI [35] was over 100 µM. The TGI [36] was over 100 µM, the TGI [37] was over 100 µM and the TGI [38] was over 100 µM. The TGI [40] was over 100 µM, the TGI [41] was over 100 µM and the TGI [42] was over 100 µM. For the same compound, the TGI [43] was over 100 µM, the TGI [44] was over 100 µM and the TGI [47] was over 100 µM. The TGI [48] was over 100 µM, the TGI [49] was over 100 µM and the TGI [50] was over 100 µM. For the same compound, the TGI [51] was over 100 µM, the TGI [52] was over 100 µM and the TGI [55] was over 100 µM. For the same compound, the TGI [57] was over 100 µM.
Compound CCOC(=O)CC1CCN(C(=O)c2ccccc2)C2Cc3c([nH]c4ccccc34)C12C[N+](=O)[O-] (stereo not given) has a TGI [2] of over 100 µM, a TGI [4] of over 100 µM and a TGI [5] of over 100 µM. It also gave a TGI [6] of over 100 µM, a TGI [7] of 51.3 µM and a TGI [8] of over 100 µM. The TGI [9] was over 100 µM, the TGI [10] was over 100 µM and the TGI [58] was over 100 µM. The TGI [13] was over 100 µM, the TGI [14] was over 100 µM and the TGI [15] was over 100 µM. For the same compound, the TGI [16] was over 100 µM, the TGI [17] was over 100 µM and the TGI [18] was over 100 µM. For the same compound, the TGI [19] was over 100 µM, the TGI [20] was over 100 µM and the TGI [21] was over 100 µM. The TGI [22] was over 100 µM, the TGI [23] was over 100 µM and the TGI [24] was over 100 µM. The TGI [25] was over 100 µM, the TGI [26] was over 100 µM and the TGI [27] was over 100 µM. It also gave a TGI [28] of over 100 µM, a TGI [29] of over 100 µM and a TGI [30] of over 100 µM. The TGI [31] was over 100 µM, the TGI [59] was over 100 µM and the TGI [32] was over 100 µM. It also gave a TGI [34] of over 100 µM, a TGI [35] of over 100 µM and a TGI [36] of over 100 µM. It also gave a TGI [37] of over 100 µM, a TGI [39] of over 100 µM and a TGI [40] of over 100 µM. For the same compound, the TGI [41] was over 100 µM, the TGI [42] was over 100 µM and the TGI [43] was over 100 µM. It also gave a TGI [44] of over 100 µM, a TGI [45] of over 100 µM and a TGI [46] of over 100 µM. It also gave a TGI [47] of over 100 µM, a TGI [49] of over 100 µM and a TGI [50] of over 100 µM. For the same compound, the TGI [51] was over 100 µM, the TGI [52] was over 100 µM and the TGI [53] was over 100 µM. It also gave a TGI [54] of over 100 µM, a TGI [55] of over 100 µM and a TGI [56] of over 100 µM. It also gave a TGI [57] of over 100 µM.
